Results reported in patent US6875748B2, “Compositions and methods for in vivo delivery of polynucleotide-based therapeutics” (Vical Incorporated, priority 2000, dated 2005).
Like-named read-outs stand apart in the source and are kept apart here.

Legend:
mouse quadriceps muscle [1] = experiment: Luciferase expression in mouse quadriceps muscle after i.m. injection of plasmid VR1255 with auxiliary agents; conditions: for ability to enhance in vivo expression relative to identical composition without the compound: mouse; for luciferase expression versus 150 mM sodium phosphate alone: day 7
[2] = Osmolarity of the salt solutions; format: physicochemical; conditions: 150 mM unless otherwise indicated
mouse quadriceps muscle [3] = experiment: Luciferase expression in mouse quadriceps muscle 7 days after i.m. injection of plasmid VR1223 in salt solutions; format: in vivo; set-up: lux: unit: ng/muscle; conditions: for ng Lux/Muscle: 50 μg VR1223 in 50 μl; for ng Lux/Muscle / Fold Saline: salts at 150 mM, day 7; for luciferase expression compared with saline (words): 150 mM solutions; for lux: 7-day luciferase expression, VR1223; for Fold Saline: relative to saline
pH of the salt solutions = format: physicochemical
[4] = 150 mM unless otherwise indicated

## CCCCCCC(=O)N(C)C[C@H](O)[C@@H](O)[C@H](O)[C@H](O)CO [MEGA 7, heptanoyl-N-methyl-glucamide]
Mouse quadriceps muscle [1]
  ability to enhance in vivo expression relative to identical composition without the compound: no ability to enhance

## Calcium Phosphate
[2]
  Osm: 36 mmol/kg
Mouse quadriceps muscle [3]
  ng Lux/Muscle: 12 ng/Muscle
  Fold Saline: 0.1 Fold
Mouse quadriceps muscle [3]; VR1223, day 7
  luciferase expression compared with saline (words): no ability to enhance
Mouse quadriceps muscle [3]; Table III-A
  lux: 12
Mouse quadriceps muscle [3]; Table III-B
  lux: 12
pH of the salt solutions; [4]
  pH: 6.0

## [Cl][Fe][Cl] [Ferrous Chloride]
[2]
  Osm: 362 mmol/kg
Mouse quadriceps muscle [3]
  ng Lux/Muscle: 0.0 ng/Muscle
  Fold Saline: <0.1 Fold
Mouse quadriceps muscle [3]; VR1223, day 7
  luciferase expression compared with saline (words): no ability to enhance
Mouse quadriceps muscle [3]; Table III-A
  lux: 0.0
Mouse quadriceps muscle [3]; Table III-B
  lux: 0.0
pH of the salt solutions; [4]
  pH: 5.0

## [Ca+2].[Cl-].[Cl-] [Calcium Chloride]
[2]
  Osm: 362 mmol/kg
Mouse quadriceps muscle [3]
  ng Lux/Muscle: 0.3 ng/Muscle
  Fold Saline: <0.1 Fold
Mouse quadriceps muscle [3]; VR1223, day 7
  luciferase expression compared with saline (words): no ability to enhance
Mouse quadriceps muscle [3]; Table III-A
  lux: 0.3
Mouse quadriceps muscle [3]; Table III-B
  lux: 0.3
pH of the salt solutions; [4]
  pH: 5.5

## O=S(=O)([O-])[O-].[Na+].[Na+] [Sodium Sulfate]
[2]
  Osm: 349 mmol/kg
Mouse quadriceps muscle [3]
  ng Lux/Muscle: 312 ng/Muscle
  Fold Saline: 2.6 Fold
Mouse quadriceps muscle [3]; VR1223, day 7
  luciferase expression compared with saline (words): increased luciferase expression compared with saline
  luciferase expression, fold over saline: 2.6 fold
Mouse quadriceps muscle [3]; Table III-A
  lux: 312
Mouse quadriceps muscle [3]; Table III-B
  lux: 312
pH of the salt solutions
  pH: 5.5
pH of the salt solutions; [4]
  pH: 5.5

## O=P([O-])([O-])OP(=O)([O-])[O-].[Na+].[Na+].[Na+].[Na+] [Sodium Pyrophosphate]
[2]
  Osm: 363 mmol/kg
Mouse quadriceps muscle [3]; Table III-A
  lux: 3
Mouse quadriceps muscle [3]; Table III-B
  lux: 3
pH of the salt solutions; [4]
  pH: 9.0

## octyl phenol ethylene oxide condensate with about 9 ethylene oxide units [Nonidet P40]
Mouse quadriceps muscle [1]
  luciferase expression versus 150 mM sodium phosphate alone: significantly increased expression

## O=P([O-])([O-])O.[Na+].[Na+] [Sodium dibasic, Na2HPO4]
[2]
  Osm: 357 mmol/kg
Mouse quadriceps muscle [3]
  ng Lux/Muscle: 282 ng/Muscle
  Fold Saline: 2.4 Fold
Mouse quadriceps muscle [3]; VR1223, day 7
  luciferase expression compared with saline (words): only slightly stimulated over saline
Mouse quadriceps muscle [3]; Table III-A
  lux: 282
Mouse quadriceps muscle [3]; Table III-B
  lux: 282
pH of the salt solutions; [4]
  pH: 8.0

## polyoxyethylene sorbitan monooleate [Tween 80]
Mouse quadriceps muscle [1]
  luciferase expression versus 150 mM sodium phosphate alone: significantly increased expression

## O=C(O)CN(CCN(CC(=O)O)CC(=O)O)CC(=O)O [EDTA, ethylenediamine tetraacetic acid]
Mouse quadriceps muscle [1]
  luciferase expression versus 150 mM sodium phosphate alone: significantly increased expression

## CCCCCCCC(=O)N(C)C[C@H](O)[C@@H](O)[C@H](O)[C@H](O)CO [MEGA 8, octanyol-N-methyl-glucamide]
Mouse quadriceps muscle [1]
  ability to enhance in vivo expression relative to identical composition without the compound: no ability to enhance

## polyoxyethylene 20 stearyl ether
Mouse quadriceps muscle [1]
  ability to enhance in vivo expression relative to identical composition without the compound: no ability to enhance

## O=C(O)CN(CCOCCOCCN(CC(=O)O)CC(=O)O)CC(=O)O [EGTA]
Mouse quadriceps muscle [1]
  ability to enhance in vivo expression relative to identical composition without the compound: no ability to enhance

## CCCCCCCCO[C@@H]1O[C@H](CO)[C@@H](O)[C@H](O)[C@H]1O [n-octylglucoside]
Mouse quadriceps muscle [1]
  ability to enhance in vivo expression relative to identical composition without the compound: no ability to enhance

## CCCCCCCCCCCCO[C@@H]1O[C@H](CO)[C@@H](O[C@H]2O[C@H](CO)[C@@H](O)[C@H](O)[C@H]2O)[C@H](O)[C@H]1O [n-Dodecylmaltoside, n-dodecylmaltoside]
Mouse quadriceps muscle [1]
  ability to enhance in vivo expression relative to identical composition without the compound: no ability to enhance

## (octyl phenoxy) polyethoxyethanol [IGEPAL CA 630®]
Mouse quadriceps muscle [1]
  luciferase expression versus 150 mM sodium phosphate alone: significantly increased expression

## octyl phenol ethylene oxide condensate with about 7-8 ethylene oxide units [Triton X-114]
Mouse quadriceps muscle [1]
  luciferase expression versus 150 mM sodium phosphate alone: significantly increased expression

## Actin
Mouse quadriceps muscle [1]
  ability to enhance in vivo expression relative to identical composition without the compound: no ability to enhance

## OCc1ccccc1 [benzyl alcohol]
Mouse quadriceps muscle [1]
  ability to enhance in vivo expression relative to identical composition without the compound: no ability to enhance

## C[S+](C)[O-] [DMSO, dimethylsulfoxide]
Mouse quadriceps muscle [1]
  luciferase expression versus 150 mM sodium phosphate alone: significantly increased expression

## sorbitan monolaurate [SPAN 20]
Mouse quadriceps muscle [1]
  ability to enhance in vivo expression relative to identical composition without the compound: no ability to enhance

## C[C@H](CCC(=O)NCCC[N+](C)(C)CCCS(=O)(=O)[O-])[C@H]1CC[C@H]2[C@@H]3[C@H](O)C[C@@H]4C[C@H](O)CC[C@]4(C)[C@H]3C[C@H](O)[C@]12C [CHAPS, 3[(3-Cholamidopropyl)dimethylammonio]-1-propanesulfonate]
Mouse quadriceps muscle [1]
  ability to enhance in vivo expression relative to identical composition without the compound: no ability to enhance

## PEG-40 Stearate [MYRJ 52]
Mouse quadriceps muscle [1]
  ability to enhance in vivo expression relative to identical composition without the compound: no ability to enhance

## polysorbate 40 [Tween-40®]
Mouse quadriceps muscle [1]
  ability to enhance in vivo expression relative to identical composition without the compound: no ability to enhance

## Macrogol-50 stearate [MYRJ 53]
Mouse quadriceps muscle [1]
  ability to enhance in vivo expression relative to identical composition without the compound: no ability to enhance

## CCCCCCCCC(=O)N(C)C[C@H](O)[C@@H](O)[C@H](O)[C@H](O)CO [MEGA 9, nonanoyl-N-methyl-glucamide]
Mouse quadriceps muscle [1]
  ability to enhance in vivo expression relative to identical composition without the compound: no ability to enhance

## CCCCCCCCCCCCCCCC[N+](C)(C)CCCS(=O)(=O)[O-] [Zwittergent, n-hexadecyl-N,N-dimethyl-3-ammonio-1-propanesulfonate]
Mouse quadriceps muscle [1]
  ability to enhance in vivo expression relative to identical composition without the compound: no ability to enhance

## polyoxyethylene sorbitan monolaurate [Tween 20]
Mouse quadriceps muscle [1]
  luciferase expression versus 150 mM sodium phosphate alone: significantly increased expression

## CCCCCCCCCCCCOS(=O)(=O)[O-].[Na+] [SDS, sodium dodecyl sulfate]
Mouse quadriceps muscle [1]
  luciferase expression versus 150 mM sodium phosphate alone: significantly increased expression

## OC[C@H]1O[C@H](OC[C@H]2O[C@H](OC[C@H]3O[C@H](O[C@]4(CO)O[C@H](CO)[C@@H](O)[C@@H]4O)[C@H](O)[C@@H](O)[C@@H]3O)[C@H](O)[C@@H](O)[C@H]2O)[C@H](O)[C@@H](O)[C@H]1O [Stachyose, stachyose]
Mouse quadriceps muscle [1]
  luciferase expression versus 150 mM sodium phosphate alone: significantly increased expression

## polyoxyethylene 10 cetyl ether
Mouse quadriceps muscle [1]
  ability to enhance in vivo expression relative to identical composition without the compound: no ability to enhance
